In data set [1] the test system is human acute myelogenous leukemia KG-1a cells. Kind of data set: KG-1a subcutaneous xenograft in NOD/SCID mice. It counts as in vivo. The note with it: 14 days; for Tumor volume: KG-1a, individual mice, listed as LLV. As for the experimental part: (§1) 7-week old female NOD/SCID mice were taken and inoculated subcutaneously with 1×10^7 cells (0.2 ml) per mouse in axilla, with human acute myelogenous leukemia KG-1a cells on the left and human acute monocytic leukemia THP-1 cells on the right. When tumors grew to a tumor size of around 0.5 cm, the mice were randomized into groups with 3 mice each. An equivalent amount of PBS was used for the control group, and the 14-D-Valine-TPL group was divided into two groups with 0.2 mg/kg body weight and 0.4 mg/kg body weight: intragastric administration 2 times a day (one at 8 a.m. and one at 4 p.m.) for consecutive 14 days of treatment. An observation was made for total 30 days, during which the conditions of the mice such as tumor size, weight, activity, diet, and the like were measured. At the end of the experiment, the mice were sacrificed, tumor tissues were taken and the tumors were weighed, and major organs and tissues of the mice such as liver, spleen, heart, lung, large intestine, small intestine, and the like were examined.
as §1, with “the left.” for “the left and human acute monocytic leukemia THP-1 cells on the right.”, “around 50-100 mm^3,” for “around 0.5 cm,”, “the TPL-LLV” for “the 14-D-Valine-TPL”, “with 0.23” for “with 0.2”, “and 0.46” for “and 0.4”, “intragastric administration,” for “intragastric administration”
as §1, with “the left.” for “the left and human acute monocytic leukemia THP-1 cells on the right.”, “around 50-100 mm^3,” for “around 0.5 cm,”, “the TPL-DLV” for “the 14-D-Valine-TPL”, “with 0.23” for “with 0.2”, “and 0.46” for “and 0.4”, “intragastric administration,” for “intragastric administration”
as §1, with “the left.” for “the left and human acute monocytic leukemia THP-1 cells on the right.”, “around 50-100 mm^3,” for “around 0.5 cm,”, “the TPL-DLV” for “the 14-D-Valine-TPL”, “with 0.32” for “with 0.2”, “and 0.64” for “and 0.4”, “intragastric administration,” for “intragastric administration”

The nature of data set [2]: Body weight and organ examination of tumour-bearing mice. The format is in vivo, NOD/SCID mice. The note with it: KG-1a-bearing mice, 14 days, individual mice, listed as LLV. The protocol:
as §1
as §1, with “the left.” for “the left and human acute monocytic leukemia THP-1 cells on the right.”, “around 50-100 mm^3,” for “around 0.5 cm,”, “the TPL-LLV” for “the 14-D-Valine-TPL”, “with 0.23” for “with 0.2”, “and 0.46” for “and 0.4”, “intragastric administration,” for “intragastric administration”
as §1, with “the left.” for “the left and human acute monocytic leukemia THP-1 cells on the right.”, “around 50-100 mm^3,” for “around 0.5 cm,”, “the TPL-DLV” for “the 14-D-Valine-TPL”, “with 0.23” for “with 0.2”, “and 0.46” for “and 0.4”, “intragastric administration,” for “intragastric administration”
7-week old female NOD/SCID mice were taken and inoculated subcutaneously with 1×10^7 cells (0.2 ml) per mouse in axilla, with human acute myelogenous leukemia KG-1a cells on the left. When tumors grew to a tumor size of around 50-100 mm^3, the mice were randomized into groups with 3 mice each. An equivalent amount of PBS was used for the control group, and the TPL-DLV group was divided into two groups with 0.32 mg/kg body weight and 0.64 mg/kg body weight: intragastric administration, 2 times a day (one at 8 a.m. and one at 4 p.m.) for consecutive 14 days of treatment. An observation was made for total 30 days, during which the conditions of the mice such as tumor size, weight, activity, diet, and the like were measured. At the end of the experiment, the mice were sacrificed, tumor tissues were taken and the tumors were weighed, and major organs and tissues of the mice such as liver, spleen, heart, lung, large intestine, small intestine, and the like were examined. […]

For data set [3], the system named is KG-1a. Description: MTT growth inhibition, KG-1a cells, 72 h. It counts as cell-based. The note with it: Homo sapiens. As for the experimental part:
(§2) 5000 well-grown leukemia cells were taken and seeded into wells of a 96-well cell culture plate. The medium was 1640 cell medium containing 10% fetal bovine serum. 14-D-Valine-TPL with different concentrations was added, and after being uniformly mixed, the plate was placed in a carbon dioxide (5% CO2) cell incubator, and incubated at 37° C. for 72 hours. The concentration of live cells was then determined using the MTT assay. In this experiment, the cell viability in the control group (without the compound treatment) was set to be 100%, and the cell viability (%) after the action of the compound and the half maximal growth inhibitory concentration of leukemia cells at 72 hours (IC50 value at 72 hours) were calculated.

Data set [4] concerns human leukemia. As to conditions: human leukemia (18/45); cited from earlier work.
Data set [5] deals with Jurkat. Kind of data set: MTT growth inhibition, Jurkat cells, 72 h. The format is cell-based, human. The protocol: (§3) 5000 well-grown leukemia cells or normal human blood cells were taken and seeded into wells of a 96-well cell culture plate. The medium was 1640 cell medium containing 10% fetal bovine serum. 14-D-Valine-TPL with different concentrations was added, and after being uniformly mixed, the plate was placed in a carbon dioxide (5% CO2) cell incubator, and incubated at 37° C. for 72 hours. The concentration of live cells was then determined using the MTT assay. In this experiment, the cell viability in the control group (without the compound treatment) was set to be 100%, and the cell viability (%) after the action of the compound the half maximal growth inhibitory concentration of leukemia cells at 72 hours (IC50 value at 72 hours) and the therapeutic window index were calculated. Therapeutic window index=IC50 value of normal blood cells/IC50 value of leukemia cells. […] A larger therapeutic window indicates a better selectivity of the compound for tumor cells.
as §2
as §2, with “well-grown lymphocytes” for “well-grown leukemia cells”

Data set [6] has as its system CEM. Kind of data set: MTT growth inhibition, CEM cells, 72 h. The format is cell-based, human. As for the experimental part: as §3, §2
as §2, with “well-grown lymphocytes” for “well-grown leukemia cells”

For data set [7], the system named is L615 leukemia. The note with it: mouse, in vivo; cited from earlier work.
The test system of data set [8] is Molt-4. Description: MTT growth inhibition, Molt-4 cells, 72 h. The format is cell-based, human. As to conditions: for Therapeutic window: IC50 of normal blood cells/IC50 of Molt-4. The protocol: as §3, §2
as §2, with “well-grown lymphocytes” for “well-grown leukemia cells”

For data set [9] the following is noted: oral and intravenous injection; cited from earlier work.
Data set [10] concerns normal human blood cells. Description: MTT assay, normal human blood cells, 72 h. As to conditions: Homo sapiens, 72 h, Normal Blood Cell, Overall, MTT, read-out: IC50. It counts as cell-based. The protocol: Leukemia cell strains: Sup-B15 (Ph+acute lymphoblastic leukemia), CEM (acute lymphoblastic leukemia, ALL), and Molt-4 (acute lymphoblastic leukemia, ALL). Normal blood cell samples: peripheral blood from healthy volunteers. • Primary reagent: 14-D-Valine-TPL of the invention. Primary instruments: cell incubator and microplate reader. (2) Experimental Method
as §3
For orientation: Formazan colour is commonly taken as a measure of viable cells.

The subject of data set [11] is Sup-B15. Kind of data set: MTT growth inhibition, Sup-B15 cells, 72 h. The format is cell-based, human. As for the experimental part: as §3, §2
as §2, with “well-grown lymphocytes” for “well-grown leukemia cells”

Several values for one entry are separate records, joined by “and”; a condition that tells them apart may be missing. Identical values can stand only once.

For the compound `CC(C)[C@H](N)C(=O)N[C@H](C(=O)O[C@@H]1[C@@]2(C(C)C)O[C@H]2[C@@H]2O[C@]23[C@]12O[C@H]2C[C@H]1C2=C(CC[C@@]13C)C(=O)OC2)C(C)C` [14-L-Valine-L-Valine-TPL, 14-Levo-Valine-Levo-Valine-Triptolide], in data set [1] (KG-1a xenograft, intragastric 2 times a day, dose-dependent effect), the “growth of KG-1a in mice in vivo (in words)” value is reported as “significantly inhibit the growth”. The Tumor volume in [1] (trifluoroacetate 0.23 mg/kg intragastric 2 times a day) is 804.56 mm^3 and 644.07 mm^3 and 1105.64 mm^3; in [1] (trifluoroacetate 0.46 mg/kg intragastric 2 times a day), 383.11 mm^3 and 356.82 mm^3 and 317.61 mm^3. Moreover, the Body weight in data set [2] (0.23 mg/kg intragastric 2 times a day, 0.23 mg/kg) was 19.4 g and 19.7 g and 20.5 g; in data set [2] (0.46 mg/kg intragastric 2 times a day, 0.46 mg/kg) it was 20.0 g and 18.9 g and 18.6 g. 20 nM corresponded to half-maximal inhibition in data set [3] (IC50).

Consider `CC(C)[C@]12O[C@H]1[C@@H]1O[C@]13[C@]1(O[C@H]1C[C@H]1C4=C(CC[C@@]13C)C(=O)OC4)[C@@H]2O` [TPL, Triptolide], for which the complete remission rate entry in data set [4] is given as “up to 40%”. Also, the half-inhibitory concentration (IC50) (as a rule, the concentration that gives 50% inhibition) in data set [5] (Homo sapiens, Jurkat, MTT, 72 hours, read-out: IC50) was 33.8 nM; in [6] (Homo sapiens, CCRF-CEM, CEM, MTT, 72 hours, read-out: IC50) it was 23.3 nM; in data set [8] (Homo sapiens, Molt-4, MTT, 72 hours, read-out: IC50) it was 10.7 nM; in data set [10] it was 21.7 nM; in [11] (Homo sapiens, Sup-B15, MTT, 72 hours, read-out: IC50), 23.2 nM. Moreover, the Therapeutic window in data set [5] (IC50 of normal blood cells/IC50 of Jurkat) came out at 0.64; in data set [6] (IC50 of normal blood cells/IC50 of CEM), 0.93; in [8], 2.03; in [8] (listed as triptolide), 2.0; in [11] (IC50 of normal blood cells/IC50 of Sup-B15), 0.94. In addition, the “survival time of L615 leukemia mice” value in data set [7] was “significantly prolong the survival time”. For the same compound, the “elimination half-life (in words)” value in data set [9] is recorded as “short elimination half-life”.

Source of the values: US10238623B2, “C14-hydroxyl esterified amino acid derivative of triptolide, and preparation method and use thereof” (HANGZHOU WEBEN PHARMACEUTICALS INC, priority 2015, dated 2019).
